Experiments:
[1] = biological target: Type 1 fimbrin D-mannose specific adhesin (Escherichia coli K-12, UniProt P08191); assay: Antagonist activity at recombinant 6His-tagged thrombin cleavage site of FimH Lectin domain expressed in Escherichia coli HM125 assessed as dissociation constant incubated for 24 hrs in presence of FITC-labeled tracer by competitive fluorescence polarization assay
[2] = Antagonist activity at recombinant 6His-tagged thrombin cleavage site of FimH Lectin domain R98A mutant expressed in Escherichia coli HM125 assessed as dissociation constant measured after 24 hrs by fluorescence polarization assay

Type 1 fimbrin D-mannose specific adhesin, sequence (P08191 whole entry, the tested form may be a part): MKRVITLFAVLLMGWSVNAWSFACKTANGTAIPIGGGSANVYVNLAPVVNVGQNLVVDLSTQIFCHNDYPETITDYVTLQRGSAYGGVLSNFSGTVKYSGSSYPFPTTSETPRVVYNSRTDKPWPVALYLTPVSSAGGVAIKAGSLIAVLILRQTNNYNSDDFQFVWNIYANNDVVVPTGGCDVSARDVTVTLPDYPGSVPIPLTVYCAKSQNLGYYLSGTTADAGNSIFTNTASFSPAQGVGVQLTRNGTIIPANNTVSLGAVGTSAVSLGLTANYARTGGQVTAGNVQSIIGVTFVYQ

Compound | Kd [1] [nM] | Kd [2] [nM]
CCCCCCCO[C@H]1O[C@H](CO)[C@@H](O)[C@H](O)[C@@H]1O | 36.8 | 35.6
OC[C@H]1O[C@H](n2cc(-c3ccccc3)nn2)[C@@H](O)[C@@H](O)[C@@H]1O | 336 | 297
CCOC(=O)CCCCCCOc1cccc(-c2cn([C@H]3O[C@H](CO)[C@@H](O)[C@H](O)[C@@H]3O)nn2)c1 | 69.1 | 13.4
O=C(O)COc1ccc(-c2cn([C@H]3O[C@H](CO)[C@@H](O)[C@H](O)[C@@H]3O)nn2)cc1 | 171 | 14.6
CCOC(=O)CCCCCOc1cccc(-c2cn([C@H]3O[C@H](CO)[C@@H](O)[C@H](O)[C@@H]3O)nn2)c1 | 48.8 | 11.5
CCOC(=O)CCCCCCCOc1ccc(-c2cn([C@H]3O[C@H](CO)[C@@H](O)[C@H](O)[C@@H]3O)nn2)cc1 | 42.8 | 8.8
CCOC(=O)CCCCOc1ccc(-c2cn([C@H]3O[C@H](CO)[C@@H](O)[C@H](O)[C@@H]3O)nn2)cc1 | 50.6 | 10.1
O=C(O)CCCCCCOc1ccc(-c2cn([C@H]3O[C@H](CO)[C@@H](O)[C@H](O)[C@@H]3O)nn2)cc1 | 37.8 | 7.6
O=C(O)COc1cccc(-c2cn([C@H]3O[C@H](CO)[C@@H](O)[C@H](O)[C@@H]3O)nn2)c1 | 356 | 29
O=C(O)CCCOc1ccc(-c2cn([C@H]3O[C@H](CO)[C@@H](O)[C@H](O)[C@@H]3O)nn2)cc1 | 63.3 | 9.45
CCOC(=O)CCCOc1ccc(-c2cn([C@H]3O[C@H](CO)[C@@H](O)[C@H](O)[C@@H]3O)nn2)cc1 | 60.7 | 8.07
CCOC(=O)CCCCCOc1ccc(-c2cn([C@H]3O[C@H](CO)[C@@H](O)[C@H](O)[C@@H]3O)nn2)cc1 | 32.6 | 6.6
CCOC(=O)CCCCCCCOc1cccc(-c2cn([C@H]3O[C@H](CO)[C@@H](O)[C@H](O)[C@@H]3O)nn2)c1 | 107 | 25
COC(=O)CCCOc1cccc(-c2cn([C@H]3O[C@H](CO)[C@@H](O)[C@H](O)[C@@H]3O)nn2)c1 | 143 | 16
CCOC(=O)CCCCOc1cccc(-c2cn([C@H]3O[C@H](CO)[C@@H](O)[C@H](O)[C@@H]3O)nn2)c1 | 65 | 16.2

Further lines, with some results ahead:

Kd [1] [nM] | Compound | Kd [2] [nM]
66.2 | COC(=O)COc1ccc(-c2cn([C@H]3O[C@H](CO)[C@@H](O)[C@H](O)[C@@H]3O)nn2)cc1 | 7.22
175 | COC(=O)COc1cccc(-c2cn([C@H]3O[C@H](CO)[C@@H](O)[C@H](O)[C@@H]3O)nn2)c1 | 22.3
178 | O=C(O)CCCOc1cccc(-c2cn([C@H]3O[C@H](CO)[C@@H](O)[C@H](O)[C@@H]3O)nn2)c1 | 20.7
7.6 | CCOC(=O)CCCCCCOc1ccc(-c2cn([C@H]3O[C@H](CO)[C@@H](O)[C@H](O)[C@@H]3O)nn2)cc1 | 1.3
56 | O=C(O)CCCCCOc1cccc(-c2cn([C@H]3O[C@H](CO)[C@@H](O)[C@H](O)[C@@H]3O)nn2)c1 | 17.3
36.7 | O=C(O)CCCCCOc1ccc(-c2cn([C@H]3O[C@H](CO)[C@@H](O)[C@H](O)[C@@H]3O)nn2)cc1 | 7.5
48.5 | O=C(O)CCCCOc1ccc(-c2cn([C@H]3O[C@H](CO)[C@@H](O)[C@H](O)[C@@H]3O)nn2)cc1 | 11.2
44.7 | O=C(O)CCCCCCCOc1ccc(-c2cn([C@H]3O[C@H](CO)[C@@H](O)[C@H](O)[C@@H]3O)nn2)cc1 | 10.1
> 1000 | O=C(O)CCCCCCCOc1cccc(-c2cn([C@H]3O[C@H](CO)[C@@H](O)[C@H](O)[C@@H]3O)nn2)c1 | 
533 | O=C(O)CCCCCCOc1cccc(-c2cn([C@H]3O[C@H](CO)[C@@H](O)[C@H](O)[C@@H]3O)nn2)c1 | 63.2
78.5 | O=C(O)CCCCOc1cccc(-c2cn([C@H]3O[C@H](CO)[C@@H](O)[C@H](O)[C@@H]3O)nn2)c1 | 16.3

Source: ChEMBL document CHEMBL4819007, “Does targeting Arg98 of FimH lead to high affinity antagonists?” (Eur J Med Chem, 2021)
